Test results from US11970454B1, “Ethyl-2[9-2(2-hydroxyquinolin-3-yl)-1,8-dioxo-3,4,9,10-tetrahydroacridine-10-yl]-acetate as an antimicrobial compound” (KING FAISAL UNIVERSITY, priority 2023, dated 2024).

How the values were obtained:
Staphylococcus aureus = test: Antimicrobial screening by agar dilution, Staphylococcus aureus; type: cell-based; details: after 10, 20, 40 and 60 minutes at all dilutions 1:100, 1:200, 1:400, 1:800
Procedure: (§1) The antibacterial properties of the synthesized compound ethyl 2-[9-(2-hydroxyquinolin-3-yl)-1,8-dioxo-3,4,9,10-tetrahydroacridine-10-yl]-acetate were studied by the method of agar dilution. Test solutions of each compound was prepared in concentration of 1% using dimethylformamide as a solvent then they are diluted in physiological solution to obtain the final experimental dilutions 1:100, 1:200, 1:400, 1:800. The effect of these substances are compared with furacillin in a controllable study. The testing microbes used were gram positive bacteria Staphylococcus aureus, gram negative bacteria Pseudomonas aeruginosa and Escherichia coli and Candida albicans fungus. The experiments used for this survey were meat-pentonlu agar (EPA) for cultivation of bacteria and Saburo environment for the fungus. Each experiment used 1 mL of test solution on each plate […]. Two drops of emulsified with microbes feel were added. All experimental samples were taken from the agar after 10, 20, 40, 60 minutes in the environment on the basis of Patrk planted. The bacteria were cultivated at a temperature of 37° C. for 1 day and the mushroom was kept in a thermostat for […] at a temperature of 28° C. Then results were checked.

Escherichia coli = test: Antimicrobial screening by agar dilution, Escherichia coli; type: cell-based; details: after 10, 20, 40 and 60 minutes at all dilutions 1:100, 1:200, 1:400, 1:800
Procedure: as §1

Pseudomonas aeruginosa = test: Antimicrobial screening by agar dilution, Pseudomonas aeruginosa; type: cell-based; details: after 10, 20, 40 and 60 minutes at all dilutions 1:100, 1:200, 1:400, 1:800
Procedure: as §1

Candida albicans = test: Antimicrobial (antifungal) screening by agar dilution, Candida albicans; type: cell-based; details: after 10, 20, 40 and 60 minutes at all dilutions 1:100, 1:200, 1:400, 1:800
Procedure: as §1

In the case of `CCOC(=O)CN1C2=C(C(=O)CCC2)C(c2cc3ccccc3nc2O)C2=C1CCCC2=O` [ethyl 2-[9-(2-hydroxyquinolin-3-yl)-1,8-dioxo-3,4,9,10-tetrahydroacridine-10-yl]-acetate], the inhibition activity (Staphylococcus aureus) is reported as “highest inhibition activity”, the inhibition activity (Escherichia coli) is reported as “highest inhibition activity” and the inhibition activity (Pseudomonas aeruginosa) is reported as “highest inhibition activity”. For the same compound, the inhibition activity (Candida albicans) was “highest inhibition activity” and the melting point was 228 °C.
